Structures are written as SMILES.

Data on three compounds can be found in patent US9750805B2, “Calcium flux agonists and methods therefor” (Nant Holdings IP, LLC, priority 2012, dated 2017).

Type in all cases: cell-based, human
For assay [1], the system named is TLR (TLR2, TLR4, TLR5, TLR9) and NOD (NOD1, NOD2) family members. The assay can be described thus: IL-8 production with TLR and NOD ligands plus suboptimal calcium flux agonist (FIGS. 3A-3E). The conditions noted are these: suboptimal doses: 20 nM thapsigargin, 316 nM A23187, 1 μM ionomycin, 10 μM cyclopiazonic acid, 31.6 μM DBHQ. How it is done:
To investigate if that observation was also true for other pattern recognition receptors, and especially for TLR and NOD receptors and other ligands, the inventors tested numerous TLR and NOD receptors and various ligands.
The doses used in this experiment were 20 nM for thapsigargin, 316 nM for A23187, 1 μM for ionomycin, 10 μM for cyclopiazonic acid, and 31.6 μM for DBHQ.
Thus, a clear pattern of adjuvant activity of calcium flux agonists on the immune response, and especially on IL-8 production and NF-κB signaling is evident where the immune response is associated with a TLR- or NOD-mediated event.
(Calcium flux is commonly read through the fluorescence of an indicator in the cells.)

In assay [2] the test system is NF-κB THP-1 cells. As to the kind of experiment: NF-κB luciferase reporter synergy with TLR2 ligand and effect of Ca2+ modulating compounds (FIG. 4). The conditions noted are these: FIG. 4; calcium flux agonist plus TLR ligand. How it is done:
For example, human promonocytic THP-1 cells were incubated in the presence or absence of a suboptimal dose of the TLR2 ligand Pam2CSK4 and compared to similarly treated cells which also received suboptimal doses of ionophore (here: A23187 and ionomycin). […] In another example, NF-κB THP-1 cells (a THP-1-derived transfectant line harboring an NF-κB-driven luciferase expression cassette) were cultivated in the presence or absence of a suboptimal dose of the TLR2 ligand Pam2CSK4 and compared to similarly treated cells that also received suboptimal doses of various SERCA inhibitors.
The inventors further investigated if the nature of calcium flux was of significance as increased intracellular calcium may have different origins. To that effect, the inventors used various calcium signaling modulators to investigate the nature of the calcium flux and contribution. As can be readily taken from the data shown, extracellular calcium flux into the cell was critical for synergistic amplification of calcium signaling. More specifically, FIG. 4 illustrates the effects of different Ca^2+ modulating compounds on synergy with respect to NF-κB activation.
A general note: In a reporter assay the amount or activity of a reporter protein is the signal.

For assay [3], the system named is κB-LUC THP-1 reporter cells. As to the kind of experiment: κB-LUC THP-1 reporter response to S. aureus conditioned/spent media (FIGS. 5B-5E). The text has this: Briefly, a culture of logarithmically dividing S. aureus was washed three times with RPMI 1640 (Cellgro). Concurrently, THP-1 κB-LUC THP-1's (THP-1 cells containing the stable integration of a NF-κB luciferase reporter gene) cultured in RPMI 1640 (Cellgro) supplemented with 10% FBS (Thermo HyClone, Waltham Mass.) and 1% penicillin-streptomycin-fungizone (Thermo HyClone) were washed three times with RPMI 1640 (Cellgro) and transferred to the bottom compartment of a 24-well 0.4 μm cutoff transwell plate (Corning) at a concentration of 1.2 million/mL. Dilutions of the washed S. aureus culture were then added to the top chamber of the transwell system at the indicated initial multiplicities of infection (MOI). The cells were incubated for 18 hours at 37° C. at which time aliquots of 60,000 cells were transferred to wells in a 384-well white bottom plate (Thermo). To evaluate luciferase gene expression, Bright-Glo Luciferase Assay Reagent (Promega) was added to each well and the plates were analyzed for luciferase activity using the Perkin Elmer TopCount NXT system (Perkin Elmer).
To determine whether the recognition of S. aureus-produced products could be further augmented through modulation of calcium flux, κB-LUC THP-1 reporter cells were incubated in the presence of a 1:100 dilution (V/V) of sterile filtered S. aureus conditioned (i.e. spent) or unused sterile media and treated with a suboptimal dose (20 nM) of thapsigargin or dimethyl sulfoxide (DMSO) vehicle control as described above. Briefly, conditioned media was produced by culturing S. aureus in RPMI with 10% fetal bovine serum overnight in a shaking incubator at 37° C. following which the bacteria were pelleted by centrifugation and the supernatants filter-sterilized using a 0.2 μm filter (VWR Radnor PA). The κB-LUC THP-1 cells were incubated in the presence of the conditioned/spent media for 18 hours prior to luciferase assay as described above.

Turning to `CC(C)(C)c1cc(O)c(C(C)(C)C)cc1O` [DBHQ, 2,5-di-tert-butylhydroquinone], in assay [1], the “effect on IL-8 production with TLR and NOD ligands” value is reported as “synergistic effect”.
For `O=C(O)CN(CCOCCOCCN(CC(=O)O)CC(=O)O)CC(=O)O` [EGTA], the “effect of Ca2+ modulating compound on synergy with respect to NF-κB activation” value in assay [2] is “reduces synergistic signal down to levels in line with what is achieved by TLR ligand alone”. Further, the “effect on calcium flux-induced synergy” value in assay [3] is given as “inhibited”.
Take `CN([C@@H](Cc1ccc(OS(=O)(=O)c2cccc3cnccc23)cc1)C(=O)N1CCN(c2ccccc2)CC1)S(=O)(=O)c1cccc2cnccc12` [KN-62]: the “effect of Ca2+ modulating compound on synergy with respect to NF-κB activation” value in assay [2] was “does not alter reporter gene expression levels”.
